As usually defined, the IC50 is the concentration that gives 50% inhibition. High values mean lower potency, low ones higher potency.

Positions of bridges follow the written chain, without caps; N, C: chain ends. Residues, ends and D or L forms follow the SMILES beside them.

The nature of this assay: Binding affinity against Opioid receptor delta 1 in guinea pig brain homogenate using [3H]- DPDPE as radioligand.
`CC[C@H](C)[C@H](NC(=O)[C@H](CCCNC(=N)N)NC(=O)[C@H](CCCNC(=N)N)NC(=O)[C@H](CC(C)C)NC(=O)[C@H](Cc1ccccc1)NC(=O)CNC(=O)CNC(=O)[C@@H](N)Cc1ccc(O)cc1)C(=O)N[C@@H](CCCNC(=N)N)C(=O)N1CCC[C@H]1C(=O)N[C@@H](CCCCN)C(=O)N[C@@H](CC(C)C)C(=O)N[C@@H](CCCCN)C(N)=O` displayed an IC50 of 4.1 nM. The compound `C[C@H]1NC(=O)[C@H](CCCNC(=N)N)NC(=O)[C@H](CCCNC(=N)N)NC(=O)[C@@H](NC(=O)[C@H](Cc2ccccc2)NC(=O)CNC(=O)CNC(=O)[C@@H](N)Cc2ccc(O)cc2)CSSC[C@@H](C(N)=O)NC(=O)[C@@H]2CCCN2C(=O)[C@H](CCCNC(=N)N)NC1=O` registered an IC50 of 19 nM. Turning to `CC(C)C[C@H](NC(=O)[C@H](Cc1ccccc1)NC(=O)CNC(=O)CNC(=O)[C@@H](N)Cc1ccc(O)cc1)C(=O)N[C@@H](CCCNC(=N)N)C(=O)N[C@@H](CCCNC(=N)N)C(=O)N[C@@H]1CSSC[C@H](C(N)=O)NC(=O)[C@H](CC(C)C)NC(=O)[C@H](CCCCN)NC(=O)[C@@H]2CCCN2C(=O)[C@H](CCCNC(=N)N)NC1=O`, the IC50 amounted to 14 nM. In turn, `CC(C)C[C@@H]1NC(=O)[C@H](CCCCN)NC(=O)[C@@H]2CCCN2C(=O)[C@H](CCCNC(=N)N)NC(=O)[C@@H](NC(=O)[C@H](CCCNC(=N)N)NC(=O)[C@H](CCCNC(=N)N)NC(=O)[C@H](CC(C)C)NC(=O)[C@H](Cc2ccccc2)NC(=O)CNC(=O)CNC(=O)[C@@H](N)Cc2ccc(O)cc2)CSSC[C@@H](C(N)=O)NC1=O` returned an IC50 of 4 nM. This IC50 is about 3.5-fold lower than that of the compound before. `CC[C@H](C)[C@H](NC(=O)[C@H](CCCNC(=N)N)NC(=O)[C@H](CCCNC(=N)N)NC(=O)[C@H](CC(C)C)NC(=O)[C@H](Cc1ccccc1)NC(=O)CNC(=O)CNC(=O)[C@@H](N)Cc1ccc(O)cc1)C(=O)N[C@@H](CCCNC(=N)N)C(=O)N1CCC[C@H]1C(=O)N[C@@H](CCCCN)C(N)=O` registered an IC50 of 7 nM. `CC(C)C[C@@H]1NC(=O)[C@H](CCCCN)NC(=O)[C@@H]2CCCN2C(=O)[C@H](CCCNC(=N)N)NC(=O)[C@H](NC(=O)[C@H](CCCNC(=N)N)NC(=O)[C@H](CCCNC(=N)N)NC(=O)[C@H](CC(C)C)NC(=O)[C@H](Cc2ccccc2)NC(=O)CNC(=O)CNC(=O)[C@@H](N)Cc2ccc(O)cc2)CSSC[C@@H](C(N)=O)NC1=O` gave an IC50 of 104 nM. To `CC[C@H](C)[C@@H]1NC(=O)[C@H](CCCNC(=N)N)NC(=O)[C@H](CCCNC(=N)N)NC(=O)[C@@H](NC(=O)[C@H](Cc2ccccc2)NC(=O)CNC(=O)CNC(=O)[C@@H](N)Cc2ccc(O)cc2)CSSC[C@@H](C(N)=O)NC(=O)[C@@H]2CCCN2C(=O)[C@H](CCCNC(=N)N)NC1=O` (H-YGGFCRRIRPC-NH2; disulfide 5-11) belongs 1.6 nM.

The values are drawn from BindingDB's records for doi:10.1021/jm00169a007 (University of Arizona, 1990).
